Reference: patent publication US20220213126A1, “SMALL MOLECULE AUTOPHAGY INDUCERS FOR THE TREATMENT OF CANCER AND NEURODEGENERATIVE DISEASES” (John Wayne Cancer Institute, priority 2019, published 2022)
Values joined by “and” are separate entries in the source; they are usually repeats but may differ in a detail not shown here. Equal entries are not always repeated. Where two headings read alike, the source gives them in different places.

Key:
[1] = target: T1, CYP2C9 (Homo sapiens, UniProt P11712); assay: CYP inhibition in pooled human liver microsomes; assay type: in vitro ADME
T1 construct: from tissue; host or cells: pooled human liver microsomes
T1 sequence (P11712 whole entry): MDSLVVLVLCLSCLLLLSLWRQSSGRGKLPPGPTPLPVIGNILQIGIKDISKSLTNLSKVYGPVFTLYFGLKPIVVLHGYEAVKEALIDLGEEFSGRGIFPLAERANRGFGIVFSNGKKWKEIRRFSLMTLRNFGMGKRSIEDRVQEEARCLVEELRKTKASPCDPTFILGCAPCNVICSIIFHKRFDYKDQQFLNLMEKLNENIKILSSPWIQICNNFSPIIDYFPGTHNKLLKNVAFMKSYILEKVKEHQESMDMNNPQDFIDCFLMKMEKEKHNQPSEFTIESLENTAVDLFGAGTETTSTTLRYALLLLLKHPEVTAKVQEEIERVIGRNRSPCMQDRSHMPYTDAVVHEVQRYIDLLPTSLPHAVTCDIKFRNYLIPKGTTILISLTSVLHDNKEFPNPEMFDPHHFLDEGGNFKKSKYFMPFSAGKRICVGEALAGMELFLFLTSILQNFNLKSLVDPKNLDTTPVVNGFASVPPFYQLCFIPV

[2] = test system: GBM4; assay: GBM cell viability, Alamar blue, 72 hours; assay type: cell-based; settings: GBM4, patient-derived cell line
Description: (§1) The effect of VMY-BC-1 was tested on a panel of GBM cell lines. […] In this study 100 μM was the highest drug concentration used, with 3-fold dilution for a 10 dose response curve.

[3] = test system: GBM8; assay: GBM cell viability, Alamar blue, 72 hours; assay type: cell-based; settings: GBM8, patient-derived cell line
Description: as §1

[4] = test system: U87; assay: GBM cell viability, Alamar blue, 72 hours; assay type: cell-based; settings: Homo sapiens, U-87 MG, U87, established glioma cell line
Description: as §1

[5] = test system: U251; assay: GBM cell viability, Alamar blue, 72 hours; assay type: cell-based; settings: Homo sapiens, U-251, U251, established glioma cell line
Description: as §1

[6] = test system: GL261; assay: GBM cell viability, Alamar blue, 72 hours; assay type: cell-based; settings: Mus musculus, GL261, established glioma cell line
Description: as §1

[7] = Pharmacokinetics of BC-4 and BC-5 in mouse plasma and brain; assay type: in vivo; settings: Balb/c mice, single oral dose 5 mg/kg; for Cmax: read-out: Cmax; for Tmax: read-out: Tmax (converted); for half-life: read-out: T½
Description: Pharmacokinetics of BC-4 and BC-5 were compared to BC-1. Pharmacokinetics were assessed in Balb/c mice administered a single oral dose of 5 mg/kg of the indicated compound (Tables 11 and 12).

[8] = test system: Caco-2 cell model; assay: Caco-2 permeability; assay type: in vitro ADME
[9] = Caco-2 permeability; assay type: in vitro ADME; settings: human, Caco-2
[10] = test system: MDA-MB-231 TNBC cells; assay: Growth of MDA-MB-231 TNBC cells; assay type: cell-based; settings: 1%, 5% or 10% serum
Description: FIGS. 2A and 2B are graphs showing the effect of VMY-BC-1 on TNBC cells. […] The percentage of cells crossing the chamber is presented as the mean±SEM. *P<0.05.
Effect of VMY-BC-1 on Triple Negative Breast Cancer Cell Lines A trans-stilbene boronic acid analog, VMY-BC-1, was tested against a TNBC cell line.

[11] = target: T2, CYP2D6 (Homo sapiens, UniProt P10635); assay: CYP inhibition in pooled human liver microsomes; assay type: in vitro ADME
T2 construct: from tissue; host or cells: pooled human liver microsomes
T2 sequence (P10635 whole entry): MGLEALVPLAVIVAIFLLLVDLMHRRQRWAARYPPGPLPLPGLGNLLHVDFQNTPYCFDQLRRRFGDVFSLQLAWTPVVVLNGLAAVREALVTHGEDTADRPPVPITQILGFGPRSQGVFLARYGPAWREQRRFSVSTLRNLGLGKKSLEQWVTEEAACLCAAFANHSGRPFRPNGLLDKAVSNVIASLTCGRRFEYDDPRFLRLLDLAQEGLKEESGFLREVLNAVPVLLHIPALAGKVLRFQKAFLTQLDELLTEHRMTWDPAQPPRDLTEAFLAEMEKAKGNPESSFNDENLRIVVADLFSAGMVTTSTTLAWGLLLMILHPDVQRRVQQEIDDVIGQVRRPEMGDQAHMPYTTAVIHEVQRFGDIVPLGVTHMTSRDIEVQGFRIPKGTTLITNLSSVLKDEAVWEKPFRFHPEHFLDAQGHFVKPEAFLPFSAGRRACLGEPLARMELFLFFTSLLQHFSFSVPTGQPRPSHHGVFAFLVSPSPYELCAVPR

[12] = test system: polyQ-expressing C. elegans; assay: PolyQ aggregation in C. elegans Huntington's disease model; assay type: in vivo; settings: 1 μM, 72 hours
Description: Synchronized populations of polyQ-expressing C. elegans were grown for 72 hours on media containing 1 μM VMY-BC-1. PolyQ aggegrative vacuoles were detected using confocal microscopy. PolyQ aggregations were decreased compared to vehicle (DMSO) (FIG. 21A). Synchronized populations of wild-type worms were grown on media containing VMY-BC-1 from 0.1 to 10 μM.

[13] = Stability in simulated gastric fluid; assay type: physicochemical
[14] = LogD octanol-water; assay type: physicochemical; settings: pH 7.4, read-out: LogD (octanol-water partition coefficient), pH 7.4
Description: Moreover, PK studies of RSV in humans conclude that even high concentration of RSV might be insufficient to achieve in vivo concentrations required for the systemic prevention of cancer. Therefore, in vitro ADME assays were carried out to assess VMY-BC-1 and to identify properties for further optimization.

[15] = target: T3, CYP1A2 (Homo sapiens, UniProt P05177); assay: CYP inhibition in pooled human liver microsomes; assay type: in vitro ADME
T3 construct: from tissue; host or cells: pooled human liver microsomes
T3 sequence (P05177 whole entry): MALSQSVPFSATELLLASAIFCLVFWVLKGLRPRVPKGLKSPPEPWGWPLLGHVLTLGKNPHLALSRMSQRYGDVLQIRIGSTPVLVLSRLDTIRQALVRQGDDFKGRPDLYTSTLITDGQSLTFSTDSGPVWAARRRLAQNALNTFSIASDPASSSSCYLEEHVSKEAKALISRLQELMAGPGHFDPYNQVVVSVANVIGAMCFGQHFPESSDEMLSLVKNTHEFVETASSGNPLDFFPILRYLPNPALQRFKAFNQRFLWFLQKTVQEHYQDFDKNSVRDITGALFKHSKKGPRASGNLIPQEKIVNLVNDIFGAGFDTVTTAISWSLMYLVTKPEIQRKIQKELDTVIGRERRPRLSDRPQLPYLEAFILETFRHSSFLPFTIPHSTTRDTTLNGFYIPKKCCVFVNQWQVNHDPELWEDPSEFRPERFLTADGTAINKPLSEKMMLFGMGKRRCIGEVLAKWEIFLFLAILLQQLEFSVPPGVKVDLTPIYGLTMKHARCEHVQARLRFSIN

[16] = test system: ULK1; assay: Western blot of autophagy proteins in U87 cells; assay type: cell-based; settings: 10 μM, 12-48 hours
Description: FIG. 14 is a Western blot of autophagy proteins in U87 GBM cells treated with vehicle (control), VMY-BC-1, or Rapamycin. Western blot is shown for p-ULK1, LC3 A/B, and cleaved PARP.
The effect of VMY-BC-1 on autophagy-related proteins in U87 cells was tested. Protein extracts were made from cells treated with vehicle control, VMY-BC-1 (10 μM), or rapamycin (200 nM) for 12-48 hours.

[17] = target: T4, CYP3A4 (Homo sapiens, UniProt P08684); assay: CYP inhibition in pooled human liver microsomes; assay type: in vitro ADME
T4 construct: from tissue; host or cells: pooled human liver microsomes
T4 sequence (P08684 2-503): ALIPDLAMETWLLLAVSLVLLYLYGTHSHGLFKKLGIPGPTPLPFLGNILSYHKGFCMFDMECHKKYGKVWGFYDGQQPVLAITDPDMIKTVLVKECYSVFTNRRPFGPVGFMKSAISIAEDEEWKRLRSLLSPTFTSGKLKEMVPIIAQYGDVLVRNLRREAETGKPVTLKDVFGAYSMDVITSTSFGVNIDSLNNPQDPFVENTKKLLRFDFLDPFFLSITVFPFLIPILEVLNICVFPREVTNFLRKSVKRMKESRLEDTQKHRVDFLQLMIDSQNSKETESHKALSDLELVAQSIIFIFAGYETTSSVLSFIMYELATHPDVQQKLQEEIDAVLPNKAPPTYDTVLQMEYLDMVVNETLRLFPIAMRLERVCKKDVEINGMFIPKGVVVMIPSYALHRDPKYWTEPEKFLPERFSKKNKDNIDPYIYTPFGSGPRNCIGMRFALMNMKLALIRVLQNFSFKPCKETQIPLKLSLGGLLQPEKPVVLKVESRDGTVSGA

[18] = Mouse plasma protein binding (in vitro binding study); assay type: in vitro ADME, CD1 mouse
Description: (§2) Free drug fraction in brain and plasma compartment was determined in vitro (Table 7). Brain to plasma (B/P) ratio was also determined in vivo (Table 8).

[19] = test system: NHA; assay: Normal cell viability, Alamar blue, 72 hours; assay type: cell-based; settings: normal cell line
Description: as §1

[20] = Normal cell viability, Alamar blue, 72 hours; assay type: cell-based; settings: MRCS, normal cell line
Description: as §1

[21] = Mouse brain homogenate binding (in vitro binding study); assay type: in vitro ADME
Description: as §2

[22] = mouse, brain, read-out: Brain level, Mean (4) ± SE
[23] = mouse, plasma, read-out: Plasma level, Mean (4) ± SE

SMILES: COc1ccc(/C=C/c2cc(OC)cc(B(O)O)c2)cc1 [VMY-BC-1]
- IC50 [1]: 78.4 µM
- IC50 [2]: 11 µM
- IC50 [3]: 9.28 µM
- IC50 [4]: 5.88 µM
- IC50 [5]: 3.98 µM
- IC50 [6]: 4.2 µM
- Brain level, Mean (4) ± SE ([7]; 0 min): BQL
- Plasma level, Mean (4) ± SE ([7]; 0 min): BQL
- Brain level, Mean (4) ± SE ([7]; 360 min): BQL
- Plasma level, Mean (4) ± SE ([7]; 360 min): BQL
- Brain level, Mean (4) ± SE ([7]; 900 min): BQL
- Plasma level, Mean (4) ± SE ([7]; 900 min): BQL
- Brain level, Mean (4) ± SE ([7]; 1440 min): BQL
- Plasma level, Mean (4) ± SE ([7]; 1440 min): BQL
- terminal elimination rate constant (lambda z) ([7]; Brain): 0.0156 min⁻¹
- terminal elimination rate constant (lambda z) ([7]; Plasma): 0.0157 min⁻¹
- concentration at 30 min [7, 22]: 1560 ± 237 ng/g
- concentration at 60 min [7, 22]: 1400 ± 211 ng/g
- concentration at 180 min [7, 22]: 169 ± 58 ng/g
- concentration at 30 min [7, 23]: 578 ± 55 ng/mL
- concentration at 60 min [7, 23]: 470 ± 61 ng/mL
- concentration at 180 min [7, 23]: 60 ± 48 ng/mL
- Cmax ([7]; mouse, Brain): 1560 ng/g
- Tmax ([7]; mouse, Brain): 30 min
- half-life ([7]; mouse, Brain): 44.3 min
- AUC(0-inf) ([7]; mouse, Plasma): 865 ng·h/mL
- AUC(0-t) ([7]; mouse, Plasma, read-out: AUC(0-t) (converted)): 803 ng·h/mL
- Cmax ([7]; mouse, Plasma): 578 ng/mL
- Tmax ([7]; mouse, Plasma): 30 min
- half-life ([7]; mouse, Plasma): 44 min
- Permeability in Caco-2 cell model [8]: high permeability
- efflux ratio [9]: 0.4
- Papp A→B ([9]; A-B): 51 ×10⁻⁶ cm/s
- Papp B→A ([9]; B-A): 20 ×10⁻⁶ cm/s
- Growth of MDA-MB-231 TNBC cells [10]: significantly inhibited growth
- IC50 [11]: > 100 µM
- PolyQ aggregations vs vehicle (DMSO) [12]: decreased
- Stability in simulated gastric fluid [13]: stable
- Stability in simulated gastric fluid, pH 1.2 ([13]; pH 1.2): 87.81% remaining
- logD [14]: 3.37
- IC50 [15]: 5 µM and 4.7 µM
- Autophagy proteins and phosphorylation of ULK1 and LC3 A/B (Western blot) [16]: increasing amounts of autophagy proteins over time as well as increased phosphorylation of ULK1 and LC3 A/B
- IC50 ([17]; read-out: IC50 CYP 3A): 70 to 100 µM
- IC50 ([17]; read-out: IC50 inhibition of CYP3A4MD2): > 100 µM
- IC50 ([17]; read-out: IC50 inhibition of CYP3A4TST): > 100 µM
- recovery ([18]; CD1, mouse, mouse plasma): 89.3%
- fraction unbound ([18]; CD1, mouse, plasma, Table 3): 0.265
- Plasma protein binding ([18]; CD1 mouse plasma): moderate plasma protein binding
- Bound (%) ([18]; Mouse Plasma): 73.48%
- fu (%) ([18]; Mouse Plasma): 26.52%
- IC50 [19]: 26.5 µM
- IC50 [20]: 35.3 µM
- Bound (%) ([21]; Mouse Brain Homogenate): 30.08%
- fraction unbound ([21]; Mouse Brain Homogenate): 0.699
- recovery ([21]; mouse, mouse brain homogenate): 108%
